Measured values published in patent US20050106111A1, “Compositions and methods for reducing dental plaque” (Aphios Corporation, priority 2003, published 2005).
Converted amounts (≈) assume the structure as drawn. Read-outs that look alike come from different tables or passages of the source. Values belong to the compound of their own block, whether it stands above or below them.

Assays:
mice = conditions: cited from earlier work
Streptococcus mutans [1] = assay: Minimum bactericidal concentration (MBC) against S. mutans; format: cell-based
Description: (§1) Minimum inhibitory concentrations (MIC) can be determined to identify the minimum concentration of a composition needed to inhibit the growth of the target organism using methods well known to those skilled in the art. Minimum bactericidal concentrations (MBC) can be determined to identify the minimum concentration of a composition needed to kill the target organism using methods well known to those skilled in the art. The MBC can be determined from the same plates set up for the MIC.
(§2) Cultures of Actinomyces viscosus, Streptococcus mutans, and Actinobacillus actinomycete-mcomitans were obtained from the American Type Culture Collection (ATCC) following instructions provided by ATCC. Frozen stocks of each bacteria were prepared by adding 10% (v/v) volume of glycerol to an overnight culture; aliquots of the resulting suspension were then frozen at −80° C.
(§3) Minimum inhibitory concentrations (MIC) were determined to identify the minimum concentration of a compound needed to inhibit the growth of the target organism. Minimum bactericidal concentrations (MBC) were determined to identify the minimum concentration of a compound needed to kill the target organism. The MBC was determined from the same plates set up for the MIC.

Streptococcus mutans [2] = assay: Minimum inhibitory concentration (MIC) against S. mutans; format: cell-based
Description: as §1, §2, §3

A. actinomycetemcomitans [3] = assay: Minimum bactericidal concentration (MBC) against A. actinomycetemcomitans; format: cell-based; conditions: Aggregatibacter actinomycetemcomitans
Description: as §1, §2, §3

A. actinomycetemcomitans [4] = assay: Minimum inhibitory concentration (MIC) against A. actinomycetemcomitans; format: cell-based; conditions: Aggregatibacter actinomycetemcomitans
Description: as §1, §2, §3

Actinomyces viscosus [5] = assay: Minimum inhibitory concentration (MIC) against A. viscosus; format: cell-based
Description: as §1, §2, §3

Actinomyces viscosus [6] = assay: Minimum bactericidal concentration (MBC) against A. viscosus; format: cell-based
Description: as §1, §2, §3

S. mutans = assay: Biofilm assay, bactericidal activity against S. mutans in a biofilm on a solid support; format: cell-based; conditions: 125 μg/mL, 1 hour incubation in test agent
Method: (§4) A biofilm assay can be conducted to assess the bactericidal activity of the target compositions when the challenge organisms are contained within a biofilm. The semi-purified Vibrio gazogenes extract can be assayed for bactericidal activity against orally-relevant microbes contained in a biofilm grown on a solid support.
as §4, with “was” for “can be”, “access” for “assess”, “compounds” for “compositions”

A. viscosus = assay: Biofilm assay, bactericidal activity against A. viscosus in a biofilm on a solid support; format: cell-based; conditions: 125 μg/mL, 1 hour incubation in test agent
Method: as §4
as §4, with “was” for “can be”, “access” for “assess”, “compounds” for “compositions”

A. actinomycetemcomitans [7] = assay: Biofilm assay, bactericidal activity against A. actinomycetemcomitans in a biofilm on a solid support; format: cell-based; conditions: 125 μg/mL, 1 hour incubation in test agent
Method: as §4
as §4, with “was” for “can be”, “access” for “assess”, “compounds” for “compositions”

[8] = clinical trials; cited from earlier work

Compound: magnesidin
LD50 (mice; intraperitoneal): 50 mg/kg | LD50 (mice; oral or subcutaneous): 1,000 mg/kg

MIC (Streptococcus mutans [2]; S. mutans, read-out: MIC): 1.95 µg/mL (≈ 3.86 µM) | MIC (A. actinomycetemcomitans [4]; A. actinomycetemcomitans, read-out: MIC): 3.9 µg/mL (≈ 7.72 µM) | MIC (Actinomyces viscosus [5]; A. viscosus, read-out: MIC): 3.9 µg/mL (≈ 7.72 µM)
Compound: [H]/N=C(\N/C(=N/[H])NCCCCCCNC(=N)NC(=N)Nc1ccc(Cl)cc1)Nc1ccc(Cl)cc1 [Chlorhexidine, chlorhexidine]
MBC (Streptococcus mutans [1]; S. mutans, read-out: MBC): 1.95 µg/mL (≈ 3.86 µM) | MBC (A. actinomycetemcomitans [3]; A. actinomycetemcomitans, read-out: MBC): 3.9 µg/mL (≈ 7.72 µM) | MBC (Actinomyces viscosus [6]; A. viscosus, read-out: MBC): 7.8 µg/mL (≈ 15.4 µM)

Compound: Oc1cc(Cl)ccc1Oc1ccc(Cl)cc1Cl [Triclosan, 5-chloro-2-(2,4-dichlorophenoxy)-phenol]
MBC (Streptococcus mutans [1]): 15.6 µg/mL (≈ 53.9 µM) | MIC (Streptococcus mutans [2]): 7.8 µg/mL (≈ 26.9 µM) | MBC (A. actinomycetemcomitans [3]): < 0.75 µg/mL | MIC (A. actinomycetemcomitans [4]): < 0.75 µg/mL | Microbial Biofilm Control (bacteria count after treatment) (S. mutans): 0 | Microbial Biofilm Control (bacteria count after treatment) (A. viscosus): 6.0 × 10^5 | Microbial Biofilm Control (bacteria count after treatment) (A. actinomycetemcomitans [7]): 2.1 × 10^6 | MIC (Actinomyces viscosus [5]): 3.9 µg/mL (≈ 13.5 µM) | MBC (Actinomyces viscosus [6]): 3.9 µg/mL (≈ 13.5 µM)

Compound: N=C(NCCCCCCNC(=N)NC(=N)Nc1ccc(Cl)cc1)NC(=N)Nc1ccc(Cl)cc1.O=C(O)[C@H](O)[C@@H](O)[C@H](O)[C@H](O)CO.O=C(O)[C@H](O)[C@@H](O)[C@H](O)[C@H](O)CO [CHG, chlorhexidine digluconate]
reduced gingivitis [8]: 50-80%
